Experimental data as given in patent US10729785B2, “Particles comprising protamine and RNA in combination with endosome destabilizing agents” (BioNTech SE, priority 2014, dated 2020).

System: fresh human red blood cells
Test: Validation of EDA: lysis of red blood cells at acidic pH (OD 405 nm of supernatant as surrogate of hemoglobin content)
Format: cell-based
Details: pH below 6, 7 hours; for damage of red blood cells / destabilization of cell membranes (OD 405 nm, hemoglobin content): 6 micrograms of peptide, 3 million human red blood cells in PBS, 37° C.

Q: GLFEAIEGFIENGWEGMIDGWYG [peptide 1] was tested. Which “damage of red blood cells / destabilization of cell membranes (OD 405 nm, hemoglobin content)” value did it give?
A: damages red blood cells

Q: Which results are given for “GLFEAIEGFIENGWEGLAEALAEALEALAAGGSC (Peptide 2) [Peptide derived from Influenza virus hemagglutinin, used as endosome destabilizing agent]”?
A: damage of red blood cells / destabilization of cell membranes (OD 405 nm, hemoglobin content): damages red blood cells; relative efficacy in damaging red blood cells (peptide 2 compared with peptide 1): more efficacious than peptide 1
